According to ChEMBL document CHEMBL4024702, “Covalent Modifiers: A Chemical Perspective on the Reactivity of α,β-Unsaturated Carbonyls with Thiols via Hetero-Michael Addition Reactions” (J Med Chem, 2017):
Non-standard residues stand in square brackets, D forms with d. Residues, ends and D or L forms follow the SMILES beside them. *: point of attachment. Cbz = O=C(OCc1ccccc1)*; Dap = NC[C@H](N)C(=O)O

Legend:
[1] = molecular target: Adenosylhomocysteinase (Homo sapiens) (UniProt P23526); test: Inhibition of S-adenosyl-L-homocysteine hydrolase (unknown origin)
Adenosylhomocysteinase (Homo sapiens), sequence (P23526 2-432 limits assumed): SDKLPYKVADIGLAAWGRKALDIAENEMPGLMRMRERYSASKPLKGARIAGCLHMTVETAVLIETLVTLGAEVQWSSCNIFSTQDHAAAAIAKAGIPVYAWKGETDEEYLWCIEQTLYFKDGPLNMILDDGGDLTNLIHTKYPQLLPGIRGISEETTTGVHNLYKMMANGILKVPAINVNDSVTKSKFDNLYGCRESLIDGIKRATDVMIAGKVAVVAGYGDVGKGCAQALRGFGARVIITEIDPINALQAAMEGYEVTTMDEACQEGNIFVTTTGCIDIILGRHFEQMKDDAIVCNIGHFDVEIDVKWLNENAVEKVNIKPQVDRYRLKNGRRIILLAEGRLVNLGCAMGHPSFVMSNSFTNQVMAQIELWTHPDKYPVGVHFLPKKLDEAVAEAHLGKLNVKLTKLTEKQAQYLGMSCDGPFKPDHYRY

[2] = molecular target: Adenosylhomocysteinase (Homo sapiens) (UniProt P23526); test: Ratio of Kinact to Ki for S-adenosyl-L-homocysteine hydrolase (unknown origin)
[3] = molecular target: T1, Calpain-1 catalytic subunit (Homo sapiens, UniProt P07384); test: Inhibition of human calpain 1 protease using Ac-LLY-AFC as substrate after 1 hr by fluorescence assay
T1 sequence (P07384 whole entry): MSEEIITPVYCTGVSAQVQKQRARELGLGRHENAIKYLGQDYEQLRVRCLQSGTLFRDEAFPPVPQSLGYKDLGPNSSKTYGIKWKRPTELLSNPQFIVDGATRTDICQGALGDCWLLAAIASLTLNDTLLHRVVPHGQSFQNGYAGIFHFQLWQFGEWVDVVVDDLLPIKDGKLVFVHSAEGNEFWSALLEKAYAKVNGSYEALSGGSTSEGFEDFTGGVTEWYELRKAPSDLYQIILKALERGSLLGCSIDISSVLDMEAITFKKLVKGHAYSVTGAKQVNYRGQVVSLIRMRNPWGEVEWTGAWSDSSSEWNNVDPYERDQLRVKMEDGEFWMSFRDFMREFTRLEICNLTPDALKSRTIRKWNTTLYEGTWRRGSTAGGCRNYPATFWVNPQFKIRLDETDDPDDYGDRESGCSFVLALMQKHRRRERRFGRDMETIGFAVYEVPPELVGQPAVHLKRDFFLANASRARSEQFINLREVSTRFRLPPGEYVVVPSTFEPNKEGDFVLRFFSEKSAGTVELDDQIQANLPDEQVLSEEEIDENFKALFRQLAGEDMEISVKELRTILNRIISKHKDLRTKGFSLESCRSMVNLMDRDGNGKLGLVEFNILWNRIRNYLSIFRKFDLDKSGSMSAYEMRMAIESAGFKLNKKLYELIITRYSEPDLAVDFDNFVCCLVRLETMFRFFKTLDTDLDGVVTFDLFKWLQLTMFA

rhinovirus B14 [4] = test: Antiviral activity against rhinovirus serotype 14 infected in human H1HeLa cells after 2 days by XTT/PMS dye based assay; type: functional, cell-based; settings: Rhinovirus B, H1-HeLa, 48 h
[5] = Cytotoxicity against human H1HeLa cells after 2 days by XTT/PMS dye based assay; type: cell-based, H1-HeLa
[6] = Reversible inhibition of human rhinovirus serotype 14 3C protease by fluorescence resonance energy transfer assay; parameters: species or system rhinovirus B14
Enterovirus = test: Antiviral activity against rhinovirus infected in human H1HeLa cells; type: functional; settings: H1-HeLa
rhinovirus B14 [7] = test: Irreversible inhibition of human rhinovirus serotype 14 3C protease assessed as ratio of Kobs/I
[8] = Cytotoxicity against human MRC5 cells; type: cell-based
[9] = Half life in dog plasma; type: ADME, cell-free, Canis lupus familiaris
[10] = Half life in human plasma; type: ADME, cell-free
[11] = Half life in rat plasma; type: ADME, cell-free
[12] = molecular target: Proto-oncogene tyrosine-protein kinase Src (Gallus gallus, UniProt P00523, S345C); test: Inhibition of chicken c-Src S345C mutant (251 to 533 residues) expressed in Escherichia coli by fluorescence assay
[13] = tested on: Proto-oncogene tyrosine-protein kinase Src (Gallus gallus), P00523 [S345C]; test: Ratio of Kinact to Ki for chicken c-Src S345C mutant (251 to 533 residues) expressed in Escherichia coli
[14] = Cysteine reactivity of the compound in CD3OD/deuterio phosphate buffer assessed as equilibrium constant for adduct formation at pH 7.4 by […] analysis
[15] = Beta-mercaptoethanol reactivity of the compound in CD3OD/deuterio phosphate buffer assessed as equilibrium constant for adduct formation at pH 7.4 by […] analysis
[16] = Methanethiol reactivity of the compound in CD3OD/deuterio phosphate buffer assessed as equilibrium constant for adduct formation at pH 7.4 by […] analysis
[17] = Glutathione reactivity of the compound in CD3OD/deuterio phosphate buffer assessed as equilibrium constant for adduct formation at pH 7.4 by […] analysis
[18] = Butanethiol reactivity of the compound in CD3OD/deuterio phosphate buffer assessed as equilibrium constant for adduct formation at pH 7.4 by […] analysis
[19] = Glutathione reactivity of the compound assessed as second order rate constant by 1H NMR analysis
[20] = Cysteine reactivity of the compound assessed as adduct formation after 2 mins by mass spectrometric analysis
[21] = Glutathione reactivity of the compound assessed as adduct formation after 2 mins by mass spectrometric analysis
[22] = Binding affinity to human rhinovirus serotype 14 3C protease; parameters: species or system rhinovirus B14

## COC1=C(OC)/C(=C/Cn2cnc3c(N)ncnc32)OC1=O
[1]
  K: 84.9 M⁻¹ s⁻¹
[2]
  Ratio: 152 M⁻¹ s⁻¹

## CCCCCC/C=C\CC(=O)N[C@@H](CO)C(=O)N[C@H](C(=O)N[C@@H](CO)[C@@H](O)CC(=O)N[C@H](C(=O)N[C@@H]1/C=C/C(=O)N[C@@H](C(C)C)C(=O)N(C)[C@@H](Cc2ccc(O)cc2)C(=O)OC1)C(C)C)C(C)C
[3]
  IC50: 3 to 79 nM

## CC(C)C[C@H](NC(=O)OCc1ccccc1)C(=O)N[C@@H](Cc1ccccc1)C(=O)N[C@H](/C=C1\CCCOC1=O)CCC(N)=O
Rhinovirus B14 [4]
  EC50: 16000 nM
[5]
  CC50 at 48 h: > 100000 nM
[6]
  Ki: 30 nM

## CCOC(=O)/C=C/C(C[C@@H]1CCNC1=O)NC(=O)[C@@H](CC(=O)[C@@H](NC(=O)c1cc(C)on1)C(C)C)Cc1ccc(F)cc1 (stereo not given in full)
Enterovirus
  EC90: 18 to 261 nM
Rhinovirus B14 [7]
  Ratio: 1.47 ×10⁶ /M/s
[8]
  CC50: > 100000 nM
[9]
  half-life: > 1 h
[10]
  half-life: > 1 h
[11]
  half-life: < 2 min

## C=CS(=O)(=O)Nc1ccc2ncnc(Nc3cccc(Br)c3)c2c1
[12]
  IC50: 2 nM
[13]
  Ratio: 1.03 M⁻¹ s⁻¹

## CCCCC[C@H](O)/C=C/[C@H]1C=CC(=O)/C1=C/CCCCCC(=O)OC
[14]
  Ke: 0.35 to 1.6 M⁻¹
[15]
  Ke: 0.35 to 1.6 M⁻¹
[16]
  Ke: 0.35 to 1.6 M⁻¹
[17]
  Ke: 0.35 to 1.6 M⁻¹
[18]
  Ke: 0.35 to 1.6 M⁻¹

## CN(C)C/C=C/C(=O)Nc1ccc2ncnc(Nc3cccc(Br)c3)c2c1
[12]
  IC50: 240 nM
[13]
  Ratio: 0.085 M⁻¹ s⁻¹

## C=C1CCOC1=O
[19]
  K: 1.3 ×10⁻⁴ /M/s

## CCCCC[C@@H](O)C/C=C1/C(=O)C=C[C@@H]1C/C=C\CCCC(=O)O
[20]
  Drug metabolism: 85%
[21]
  Drug metabolism: 70%

## CC(=O)NC[C@@H](C=O)NC(=O)[C@H](Cc1ccccc1)NC(=O)[C@H](CC(C)C)NC(=O)OCc1ccccc1 (Cbz-Leu-Phe-[Dap](Ac)-aldehyde)
[22]
  Ki: 6 nM

## CCCCC[C@H](O)/C=C/[C@H]1C=CC(=O)[C@@H]1CCCCCCC(=O)OC
[14]
  Ke: 6.1 to 10.8 M⁻¹
[15]
  Ke: 6.1 to 10.8 M⁻¹
[16]
  Ke: 6.1 to 10.8 M⁻¹
[17]
  Ke: 6.1 to 10.8 M⁻¹
[18]
  Ke: 6.1 to 10.8 M⁻¹
